Measured values published in patent US20240400986A1, “MEMBRANE BOUND COMPOSITIONS AND METHODS RELATING TO SAME” (FLAGSHIP PIONEERING INNOVATIONS VII, LLC, priority 2021, published 2024).
Read-outs that look alike come from different tables or passages of the source.

Key:
[1] = tested on: neuronal cell line derived from human neuroblastoma
Experimental: For the screening, a total of 99 compounds (TargetMol) were divided in 5 groups. Each group included an untreated condition, a vehicular DMSO control, and a known high-gigasome producing condition to comparatively study gigasome production rates. As a cell death control group, 500 nM Staurosporine was added to induce apoptosis. Cultures were incubated for 24 hours under gigasome inducing conditions at concentrations ranging between 10 nM and 10,000 nM. Before the end of the treatment, live neuronal cultures were imaged. The Zeiss ZEN Blue software was used to distribute imaging fields of view (positions) to create an unbiased imaging sample of a well. 5 images were taken using a Zeiss LSM 900 confocal microscope. […] The BioApps ZEN software package was used to perform cell nucleus segmentation and counting. After 24 hours, gigasomes were harvested from the cell culture media by gently removing from the top of each 96-well ⅔ of the total volume without disturbing the cell layer (containing the settled gigasomes) and by adding to each well the same amount of PBS. […] Cells remaining in the 96-well plates were assessed for viability using CellTiter-Glo (Promega).

[2] = tested on: neuronal cell line derived from human neuroblastoma; test: Small molecule compound screen of gigasome production in neuronal monocultures; conditions: for Number of Gigasomes Produced / Fold Change of Gigasomes Produced vs. DMSO: 24 hours
Text: To quantify and characterize gigasome production using microscopy, while tracking cell viability/phenotype, a multi-readout system was developed that allowed simultaneous analysis of gigasomes harvested from cell culture media supernatants and respective gigasome producing cell viability. […] For the screening, a total of 99 compounds (TargetMol) were divided in 5 groups. Each group included an untreated condition, a vehicular DMSO control, and a known high-gigasome producing condition to comparatively study gigasome production rates. As a cell death control group, 500 nM Staurosporine was added to induce apoptosis. Cultures were incubated for 24 hours under gigasome inducing conditions at concentrations ranging between 10 nM and 10,000 nM. Before the end of the treatment, live neuronal cultures were imaged. The Zeiss ZEN Blue software was used to distribute imaging fields of view (positions) to create an unbiased imaging sample of a well. 5 images were taken using a Zeiss LSM 900 confocal microscope. […] The BioApps ZEN software package was used to perform cell nucleus segmentation and counting. After 24 hours, gigasomes were harvested from the cell culture media by gently removing from the top of each 96-well ⅔ of the total volume without disturbing the cell layer (containing the settled gigasomes) and by adding to each well the same amount of PBS. The wells were washed twice gently, and the gigasome-containing media/PBS wash was transferred into the well of a 384-well glass bottom plate. Cells remaining in the 96-well plates were assessed for viability using CellTiter-Glo (Promega).
For gigasome analysis in 384-well plates, the Zeiss ZEN Blue software was used to distribute positions to create an unbiased imaging sample of a well. 6 images per well were taken using a Zeiss LSM 900 confocal microscope.
A watershed binary segmentation step was performed to separate grouped objects. For each particle in the mask, characteristic parameters of the particle were calculated and saved.
Particles of interest were identified by thresholding by area and circularity. […] Circularity, defined by the formula 4pi(area/perimeter^2, was set to be between 0.8 and 1, where a value of 1.0 is a perfect circle, and a value of 0 is a line. Gigasomes were identified from the particles of interest by thresholding by mean nuclear signal. The nuclear signal threshold was set using a value equal to one fourth of a threshold value calculated by the Li auto-threshold algorithm applied to the distribution of all particles of interest. Particles of interest with nuclear signal below this value were considered “negative” for nuclear material and were identified as gigasomes. A sampling factor was calculated to extrapolate the total quantity of a type of object (particles, particles of interest, gigasomes) in the well. The sampling factor was the percentage of the well's area that was imaged. […] The normalized quantity or distribution of objects was described as a quantity or distribution of objects per 1000 cells.

[3] = tested on: cardiomyocytic cell line derived from human ventricular heart tissue; test: Small molecule compound screen of gigasome production in cardiomyocytic monocultures;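 also: gigasomes shed into the culture medium were imaged by confocal microscopy and counted as round particles lacking nuclear signal, extrapolated to the whole well, fold change is relative to DMSO vehicle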
[4] = Homo sapiens, 24 h, read-out: Fold Change of Gigasomes Produced vs. DMSO
[5] = Table 22, dose 10 nM, cardiomyocytes, 24 hours
[6] = Table 22, dose 1000 nM, cardiomyocytes, 24 hours
[7] = Table 22, dose 10000 nM, cardiomyocytes, 24 hours
[8] = neuronal cells, dose 10 nM, 24 hours
[9] = neuronal cells, dose 100 nM, 24 hours
[10] = neuronal cells, dose 1000 nM, 24 hours
[11] = neuronal cells, dose 10000 nM, 24 hours
[12] = Table 23 (down-regulators), dose 10 nM, cardiomyocytes
[13] = Table 23 (down-regulators), dose 100 nM, cardiomyocytes
[14] = Table 23 (down-regulators), dose 1000 nM, cardiomyocytes
[15] = Table 23 (down-regulators), dose 10000 nM, cardiomyocytes

SMILES: C/C(=C\c1csc(C)n1)[C@@H]1C[C@@H]2O[C@]2(C)CCC[C@H](C)[C@H](O)[C@@H](C)C(=O)C(C)(C)[C@@H](O)CC(=O)N1 [Ixabepilone]
- Viability ([1]; human, 24 h, 10 nM): 50-75%
- fold induction at 0.01 µM [2, 4]: 2 to 3
- Number of Gigasomes Produced ([2]; neuronal cells, dose 10 nM): 65-75

SMILES: COc1ccc(S(=O)(=O)N(CCO)c2ccccc2CN(C)C/C=C/c2ccc(Cl)cc2)cc1 [KN-93, reference compound]
- Fold Change of Gigasomes Produced vs. DMSO [3, 5]: 1.25-1.5
- Number of Gigasomes Produced [3, 5]: 225-250
- Fold Change of Gigasomes Produced vs. DMSO [3, 6]: 1.25-1.5
- Number of Gigasomes Produced [3, 6]: 250-275
- Fold Change of Gigasomes Produced vs. DMSO [3, 7]: 1.5-1.75
- Number of Gigasomes Produced [3, 7]: 250-275

SMILES: CC(C)(O)c1coc(S(=O)(=O)NC(=O)Nc2c3c(cc4c2CCC4)CCC3)c1 [MCC950 sodium]
- Viability [1, 8]: 100%
- Viability [1, 9]: >75%
- Viability [1, 10]: 100%
- Viability [1, 11]: 100%
- fold induction at 0.01 µM [2, 4]: 1 to 1.25
- fold induction at 0.1 µM [2, 4]: 1 to 1.25
- fold induction at 1 µM [2, 4]: 0.5 to 0.75
- fold induction at 10 µM [2, 4]: 0.75 to 1
- Number of Gigasomes Produced ([2]; neuronal cells, dose 10 nM): 35-40
- Number of Gigasomes Produced ([2]; neuronal cells, dose 100 nM): 35-40
- Number of Gigasomes Produced ([2]; neuronal cells, dose 1000 nM): 20-25
- Number of Gigasomes Produced ([2]; neuronal cells, dose 10000 nM): 25-30

SMILES: CCCCCCCCCCCCCC[N+](C)(C)C.[Br-] [MiTMAB, reference compound]
- Viability [1, 11]: >75%
- Fold Change of Gigasomes Produced vs. DMSO ([2]; neuronal cells, dose 10000 nM): 2.0-3.0
- Number of Gigasomes Produced ([2]; neuronal cells, dose 10000 nM): 55-65

SMILES: CN[C@H](CC(=O)O)C(=O)O [NMDA, reference compound]
- Viability [1, 8]: 100%
- Viability [1, 9]: 100%
- Viability [1, 10]: 100%
- Viability [1, 11]: 100%
- Fold Change of Gigasomes Produced vs. DMSO ([2]; neuronal cells, dose 10 nM): 0.75-1.0
- Number of Gigasomes Produced ([2]; neuronal cells, dose 10 nM): 30-35
- Fold Change of Gigasomes Produced vs. DMSO ([2]; neuronal cells, dose 100 nM): 0.75-1.0
- Number of Gigasomes Produced ([2]; neuronal cells, dose 100 nM): 30-35
- Fold Change of Gigasomes Produced vs. DMSO ([2]; neuronal cells, dose 1000 nM): 0.5-0.75
- Number of Gigasomes Produced ([2]; neuronal cells, dose 1000 nM): 20-25
- Fold Change of Gigasomes Produced vs. DMSO ([2]; neuronal cells, dose 10000 nM): 0.25-0.5
- Number of Gigasomes Produced ([2]; neuronal cells, dose 10000 nM): 15-20
- downregulation of gigasome production ([2]; neuronal cells, doses 10-10,000 nM, 24 h): dose-dependent downregulation

SMILES: CCCCc1ccc(NC(C)=O)c(C)c1 [SMIP004]
- Fold Change of Gigasomes Produced vs. DMSO [3, 6]: 1.0-1.25
- Number of Gigasomes Produced [3, 6]: 150-175
- Fold Change of Gigasomes Produced vs. DMSO [3, 7]: 1.25-1.5
- Number of Gigasomes Produced [3, 7]: 175-200
- Fold Change of Gigasomes Produced vs. DMSO ([2]; neuronal cells, dose 10 nM): >1.25
- Number of Gigasomes Produced ([2]; neuronal cells, dose 10 nM): >40
- Fold Change of Gigasomes Produced vs. DMSO ([2]; neuronal cells, dose 100 nM): 0.75-1.0
- Number of Gigasomes Produced ([2]; neuronal cells, dose 100 nM): 35-40
- Fold Change of Gigasomes Produced vs. DMSO ([2]; neuronal cells, dose 1000 nM): 0.75-1.0
- Number of Gigasomes Produced ([2]; neuronal cells, dose 1000 nM): 30-35
- Fold Change of Gigasomes Produced vs. DMSO ([2]; neuronal cells, dose 10000 nM): 0.75-1.0
- Number of Gigasomes Produced ([2]; neuronal cells, dose 10000 nM): 30-35

SMILES: O=C(Nc1ccccc1-c1cn2c(CN3CCNCC3)csc2n1)c1cnc2ccccc2n1 [SRT 1720]
- Fold Change of Gigasomes Produced vs. DMSO [3, 6]: 1.0-1.25
- Number of Gigasomes Produced [3, 6]: 150-175

SMILES: NC(=O)C1CCCc2c1[nH]c1ccc(Cl)cc21 (stereo not shown) [Selisistat]
- Fold Change of Gigasomes Produced vs. DMSO [3]: 1.25-1.5
- Number of Gigasomes Produced [3, 5]: 150-175

SMILES: CCC(C)(C)C(=O)O[C@H]1C[C@@H](C)C=C2C=C[C@H](C)[C@H](CC[C@@H]3C[C@@H](O)CC(=O)O3)[C@H]21 [Simvastatin]
- Number of Gigasomes Produced ([2]; neuronal cells, dose 100 nM): <35
- Number of Gigasomes Produced ([2]; neuronal cells, dose 1000 nM): 35-45
- Number of Gigasomes Produced ([2]; neuronal cells, dose 10000 nM): 45-55

SMILES: Fc1ccc(CNc2ncnc3ccc(F)cc23)cc1 [Spautin-1]
- Fold Change of Gigasomes Produced vs. DMSO [3, 12]: 0.75-1.0
- Number of Gigasomes Produced [3, 12]: 105-120
- Fold Change of Gigasomes Produced vs. DMSO [3, 13]: 0.75-1.0
- Number of Gigasomes Produced [3, 13]: 120-135
- Fold Change of Gigasomes Produced vs. DMSO [3, 14]: 0.5-0.75
- Number of Gigasomes Produced [3, 14]: 90-105
- Fold Change of Gigasomes Produced vs. DMSO [3, 15]: 0.5-0.75
- Number of Gigasomes Produced [3, 15]: 75-90

SMILES: O=C(Oc1cccc(F)c1OC(=O)c1cccc(O)c1)c1cccc(O)c1 [WZB117, reference compound]
- Fold Change of Gigasomes Produced vs. DMSO [3, 12]: 1.0-1.25
- Number of Gigasomes Produced [3, 12]: 120-135
- Fold Change of Gigasomes Produced vs. DMSO [3, 13]: 0.75-1.0
- Number of Gigasomes Produced [3, 13]: 105-120
- Fold Change of Gigasomes Produced vs. DMSO [3, 14]: 0.75-1.0
- Number of Gigasomes Produced [3, 14]: 105-120
- Fold Change of Gigasomes Produced vs. DMSO [3, 15]: 0.25-0.5
- Number of Gigasomes Produced [3, 15]: 35-50
- downregulation of gigasome production ([3]; cardiomyocytes, doses 10-10,000 nM, 24 h): dose-dependent downregulation
